pKd: −log10 of the molar value.

Assay [1] addresses HSPA8 (Homo sapiens, UniProt P11142). The assay can be described thus: isothermal titration calorimetry. The format is binding. Particulars: n=1.1. On the technique in general: Isothermal titration calorimetry measures the heat released or taken up as one component is titrated into another.
Assay [2] addresses HSPA1A (Homo sapiens, UniProt P0DMV8). Briefly: isothermal titration calorimetry. The format is binding. To be noted: n=0.9.

Chain of HSPA1A (P0DMV8 2-641): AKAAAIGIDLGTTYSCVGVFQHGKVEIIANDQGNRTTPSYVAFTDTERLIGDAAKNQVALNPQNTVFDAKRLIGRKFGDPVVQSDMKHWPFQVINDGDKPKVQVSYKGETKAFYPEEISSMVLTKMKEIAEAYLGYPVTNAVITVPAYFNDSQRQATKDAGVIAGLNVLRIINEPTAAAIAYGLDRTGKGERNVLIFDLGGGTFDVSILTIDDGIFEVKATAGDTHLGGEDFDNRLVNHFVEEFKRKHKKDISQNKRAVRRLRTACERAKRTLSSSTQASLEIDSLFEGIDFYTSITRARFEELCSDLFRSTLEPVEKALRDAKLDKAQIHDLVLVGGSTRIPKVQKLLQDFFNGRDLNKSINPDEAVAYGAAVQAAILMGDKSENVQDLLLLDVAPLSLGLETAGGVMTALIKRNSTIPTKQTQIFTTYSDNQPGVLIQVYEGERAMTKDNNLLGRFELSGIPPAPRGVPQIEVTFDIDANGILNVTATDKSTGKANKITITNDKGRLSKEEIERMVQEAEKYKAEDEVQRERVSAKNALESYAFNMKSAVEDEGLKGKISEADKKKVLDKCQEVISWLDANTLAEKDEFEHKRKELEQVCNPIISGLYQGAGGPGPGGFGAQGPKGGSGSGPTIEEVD
Chain of HSPA8 (P11142 2-646): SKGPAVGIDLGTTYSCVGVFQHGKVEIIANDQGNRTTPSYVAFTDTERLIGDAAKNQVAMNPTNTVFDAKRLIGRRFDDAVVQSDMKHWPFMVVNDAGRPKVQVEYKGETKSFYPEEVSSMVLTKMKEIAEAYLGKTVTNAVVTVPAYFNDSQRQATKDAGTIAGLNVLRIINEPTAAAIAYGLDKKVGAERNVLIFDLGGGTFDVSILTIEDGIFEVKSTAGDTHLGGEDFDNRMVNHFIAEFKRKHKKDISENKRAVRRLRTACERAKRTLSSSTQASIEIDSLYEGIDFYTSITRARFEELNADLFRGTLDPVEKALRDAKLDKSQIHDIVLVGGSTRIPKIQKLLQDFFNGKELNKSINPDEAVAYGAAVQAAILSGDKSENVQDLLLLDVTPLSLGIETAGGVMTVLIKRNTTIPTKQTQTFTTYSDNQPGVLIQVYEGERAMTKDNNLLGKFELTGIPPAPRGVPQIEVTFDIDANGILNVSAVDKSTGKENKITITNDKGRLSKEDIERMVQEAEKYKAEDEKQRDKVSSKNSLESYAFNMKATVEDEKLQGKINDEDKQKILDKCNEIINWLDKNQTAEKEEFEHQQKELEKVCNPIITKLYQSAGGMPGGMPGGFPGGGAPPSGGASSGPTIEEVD

The term pKd denotes the negative decadic logarithm of the Kd, by convention in mol/L. A higher pKd goes with a low Kd. With `C[C@@H]1[C@]2(O[C@H]3C=C4[C@@H]5CC[C@H]6Cc7nc8c(nc7C[C@]6(C)[C@H]5C[C@@H](O)[C@]4(C)[C@]31O)C[C@@H]1CC[C@H]3C4=C[C@@H]5O[C@]6(CCC(C)(C)O6)[C@@H](C)[C@@H]5[C@@]4(C)[C@H](O)C[C@@H]3[C@@]1(C)C8)O[C@](C)(CO)C[C@H]2O` [compound 3, ritterostatin GN1N], the pKd is 5.79 in assay [1] and 6.20 in assay [2].

Source of the values: publication PMC5562448 (Chembiochem : a European journal of chemical biology, 2017).
